Drawing on ChEMBL document CHEMBL4138292, “Metabolomics-Guided Discovery of Microginin Peptides from Cultures of the Cyanobacterium Microcystis aeruginosa” (J Nat Prod, 2018), this text covers IC50 for three compounds.

For this experiment, the target named is Angiotensin-converting enzyme (Homo sapiens, UniProt P12821). In words: Inhibition of ACE (unknown origin) using hippuryl-L-histidyl-L-leucine as substrate preincubated with substrate for 30 mins followed by enzyme addition measured after 30 mins by LC/MS analysis.

pIC50: −log10 of the molar value.

Angiotensin-converting enzyme, sequence (P12821 whole entry): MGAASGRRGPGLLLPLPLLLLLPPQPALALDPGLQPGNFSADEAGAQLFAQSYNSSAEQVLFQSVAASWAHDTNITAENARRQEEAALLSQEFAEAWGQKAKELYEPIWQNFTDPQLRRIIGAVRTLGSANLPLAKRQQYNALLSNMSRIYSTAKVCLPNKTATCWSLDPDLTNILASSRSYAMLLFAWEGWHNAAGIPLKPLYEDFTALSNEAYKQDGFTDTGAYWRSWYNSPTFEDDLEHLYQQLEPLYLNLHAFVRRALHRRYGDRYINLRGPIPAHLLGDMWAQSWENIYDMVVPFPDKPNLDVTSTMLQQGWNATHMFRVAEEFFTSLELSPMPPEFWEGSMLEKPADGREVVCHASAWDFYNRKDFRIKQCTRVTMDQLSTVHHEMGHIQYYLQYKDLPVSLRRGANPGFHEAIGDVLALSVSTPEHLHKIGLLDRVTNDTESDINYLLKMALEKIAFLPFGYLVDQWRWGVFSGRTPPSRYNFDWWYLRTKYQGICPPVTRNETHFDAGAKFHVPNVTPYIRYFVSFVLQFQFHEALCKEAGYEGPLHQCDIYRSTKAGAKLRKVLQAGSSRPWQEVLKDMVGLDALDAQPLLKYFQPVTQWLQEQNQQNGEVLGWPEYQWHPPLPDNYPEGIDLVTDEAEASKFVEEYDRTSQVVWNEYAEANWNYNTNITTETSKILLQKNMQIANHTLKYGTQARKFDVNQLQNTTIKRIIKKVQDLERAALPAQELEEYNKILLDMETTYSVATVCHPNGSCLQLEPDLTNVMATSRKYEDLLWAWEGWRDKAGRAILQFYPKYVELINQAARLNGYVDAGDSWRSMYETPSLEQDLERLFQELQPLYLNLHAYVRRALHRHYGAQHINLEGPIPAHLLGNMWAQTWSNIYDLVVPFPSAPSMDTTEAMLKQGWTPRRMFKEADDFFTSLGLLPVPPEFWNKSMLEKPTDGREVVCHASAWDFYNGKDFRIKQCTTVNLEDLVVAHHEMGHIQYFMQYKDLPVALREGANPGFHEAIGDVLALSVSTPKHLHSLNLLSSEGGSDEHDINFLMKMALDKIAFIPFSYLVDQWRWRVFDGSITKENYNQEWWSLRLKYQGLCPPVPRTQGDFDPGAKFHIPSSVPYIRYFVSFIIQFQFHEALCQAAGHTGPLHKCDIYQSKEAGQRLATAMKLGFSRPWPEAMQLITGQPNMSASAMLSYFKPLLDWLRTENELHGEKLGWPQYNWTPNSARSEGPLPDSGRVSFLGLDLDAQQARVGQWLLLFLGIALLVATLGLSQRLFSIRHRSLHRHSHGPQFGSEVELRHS

`CCCCCCC[C@H](N)[C@H](O)C(=O)N[C@@H](C)C(=O)N[C@H](C(=O)O)C(C)C` showed a negative-log IC50 (pIC50) of 3.34.

`O=C(O)CN(CCN(CC(=O)O)CC(=O)O)CC(=O)O` [EDETIC ACID] showed a pIC50 of 4.85.

The compound `CCCCCCC[C@H](N)[C@H](O)C(=O)N(C)[C@@H](CC[S+](C)[O-])C(=O)N[C@@H](Cc1ccc(O)cc1)C(=O)O` (stereo partly drawn) gave a negative logarithm of the IC50 (pIC50) of 4.51.
